Patent publication US20040063651A1, “Remedies for hepatitis c” (priority 2000, published 2004)

Legend:
hepatitis C = settings: medical treatment of hepatitis C; cited from earlier work
MT-2C cells = experiment: Yield of total cellular RNA of HCV-infected MT-2C cells (cell injury); assay type: cell-based, human; settings: 0.1-10 μM compound, 7 days culture
Experimental: MT-2C cells that are cells derived from human T cells (Kato, N. et. al., Biochem. Biophs. Res. Commun. 206, 863-869, 1995) were cultured in an RPMI 1640 medium (Gibco-BRL 11875-101) supplemented with FBS (Foetal Bovine Serum, Gibco-BRL10082-147) at 10%. Thus cultured MT-2C cells (1×10^6 cells) were suspended in 200 uL of an F-12 medium (Gibco-BRL 11059-029) added with EDTA (ethylenediamine tetraacetic acid) to yield final concentration of 5 mM. Thereto was added 20 μL of a serum derived from a hepatitis C patient, followed by infection at 37° C. for 2 hours. After the infection, the cells were washed three times with 1 mL of PBS (Phosphate buffered saline), suspended in 6 mL of an RPMI medium added with FBS at 10%. The suspended cells were seeded on a 48 well culture plate, and incubated in a CO2 incubator at 32° C. for 3 days. Thereto was added the compound of Synthetic Example 1, Synthetic Example 2, Synthetic Example 10 or Synthetic Example 11 dissolved in DMSO (Dimethyl Sulfoxide) in an amount of thousandths of the medium, and the mixture was cultured for 3 days. A medium adjusted to have the same concentration of the identical compound was added to each well in a two-fold volume, followed by an additional culture for 4 days. Cells were harvested for each of the samples, and total cellular RNA was purified. For the RNA purification, ISOGEN (NIPPON GENE, 311-02501) was used. In order to quantitatively determine an HCV RNA genome in the purified RNA, the following operation was carried out.

HCV RNA polymerase = target: T1, HCV RNA polymerase (Hepatitis C virus genotype 1b, UniProt Q9WMX2); experiment: Inhibitory effect on HCV RNA polymerase activity ([α-32P]UTP incorporation, poly(A)/oligo(U)); assay type: biochemical; settings: 10 uM UTP, 30° C. for 30 minutes; read-out: 50% inhibitory concentration for HCV RNA polymerase
T1 construct: Expression and purification of HCV RNA polymerase were performed in accordance with known processes; made in house
Experimental: Inhibitory effect on an HCV RNA polymerase activity of the compounds of Synthetic Example 12, Synthetic Example 13, Synthetic Example 19, Synthetic Example 21 and Synthetic Example 22 described above was measured by the following process.
Expression and purification of HCV RNA polymerase were performed in accordance with known processes (V. Lohman et al., VIROLOGY, 249, 108-118, 1998).
The purified HCV RNA polymerase in an amount of 200 ng was mixed with 100 ng/mL poly(A)RNA (polyadenine RNA) as a template RNA and 25 ng/mL 15-mer oligo(U)RNA (oligouridine having 15 bases, TAKARA Shuzo) as a primer RNA in 50 μL of an aqueous solution containing 20 mM Tris-Cl (pH 7.5), 5 MM MgCl2, 25 mM KCl, 10 uM UTP (Uridine-triphosphate), 0.25 Ci/mL [α-^32P]UTP (Amersham, PB10203). Then, thereto was added the compound of Synthetic Example 12, Synthetic Example 13, Synthetic Example 19, Synthetic Example 21 or Synthetic Example 22, followed by an RNA synthetic reaction at 30° C. for 30 minutes.
After completing the reaction, RNA in the solution was absorbed on DE81 paper (Whattman). Then, [α-^32P]UTP which was not incorporated into the synthesized RNA was washed out with 0.5 M phosphate buffer, and the quantity of [α-^32P]UTP which was incorporated into the synthesized RNA on the DE81 paper was determined on a liquid scintillation counter.
Inhibitory potency of the compounds of Synthetic Example 12, Synthetic Example 13, Synthetic Example 19, Synthetic Example 21 and Synthetic Example 22 was represented by 50% inhibitory concentration when the negative control without HCV RNA polymerase was assumed as 0% while the positive control without the compound was assumed as 100%.

Hepatitis C Virus (HCV) = experiment: Inhibitory effect on HCV proliferation in infected MT-2C cells (nested RT-PCR detection limit dilution of HCV genome); assay type: cell-based; settings: for detection of HCV genome in diluted RT product: FIG. 2, negative control detected up to 10-fold or 30-fold dilution
Experimental: Inhibitory effect on HCV proliferation of the compounds of Synthetic Example 1, Synthetic Example 2, Synthetic Example 10 and Synthetic Example 11 described above was measured by the following process.
Measurement of anti HCV proliferation inhibitory activity was performed in accordance with a known process (Kato, N. et. al., Biochem. Biophs. Res. Commun. 206, 863-869, 1995).
MT-2C cells that are cells derived from human T cells (Kato, N. et. al., Biochem. Biophs. Res. Commun. 206, 863-869, 1995) were cultured in an RPMI 1640 medium (Gibco-BRL 11875-101) supplemented with FBS (Foetal Bovine Serum, Gibco-BRL10082-147) at 10%. Thus cultured MT-2C cells (1×10^6 cells) were suspended in 200 uL of an F-12 medium (Gibco-BRL 11059-029) added with EDTA (ethylenediamine tetraacetic acid) to yield final concentration of 5 mM. Thereto was added 20 μL of a serum derived from a hepatitis C patient, followed by infection at 37° C. for 2 hours. After the infection, the cells were washed three times with 1 mL of PBS (Phosphate buffered saline), suspended in 6 mL of an RPMI medium added with FBS at 10%. The suspended cells were seeded on a 48 well culture plate, and incubated in a CO2 incubator at 32° C. for 3 days.
Thereto was added the compound of Synthetic Example 1, Synthetic Example 2, Synthetic Example 10 or Synthetic Example 11 dissolved in DMSO (Dimethyl Sulfoxide) in an amount of thousandths of the medium, and the mixture was cultured for 3 days. A medium adjusted to have the same concentration of the identical compound was added to each well in a two-fold volume, followed by an additional culture for 4 days. Cells were harvested for each of the samples, and total cellular RNA was purified. For the RNA purification, ISOGEN (NIPPON GENE, 311-02501) was used. In order to quantitatively determine an HCV RNA genome in the purified RNA, the following operation was carried out.
Using 1 μg of the purified RNA, a reverse transcription reaction was performed in a total volume of 20 uL at 37° C. for 1 hour. Subsequently, an inactivation treatment of the reverse transcriptase was carried out at 100° C. for 30 minutes. SuperScript™ II (Gibco BRL 18064-014) was used as a reverse. transcriptase, and an oligoDNA (Gibco BRL) having 20 bases which are complementary to the sequence of base position 317 through base position 336 of HCV-J strain (Kato, N. et. al. Proc. Natl. Acad. Sci. USA 87, 9524-9528, 1990) was used as a primer.
Product of the reverse transcription reaction was diluted to 3-fold, 10-fold, 30-fold and 100-fold with sterilized and distilled water. First PCR (Polymerase Chain Reaction), (34 cycles of: at 94° C. for 1 minute, at 58° C. for 45 seconds and at 72° C. for 1 minute; and 1 cycle of: at 94° C. for 1 minute, at 58° C. for 1 minute and 40 seconds and at 72° C. for 8 minutes) was performed in a total volume of 50 μL using 3 μL of the diluted product of the reverse transcription reaction. EX-Taq (TAKARA RR001A) was used as a DNA synthetase, while an oligoDNA (GibcoBRL) having 20 bases which correspond to the sequence of base position 71 through base position 90 and an oligoDNA (Gibco BRL) having 20 bases which are complementary to the sequence of base position 317 through base position 336 of HCV-J strain were used as primers. […]

[1] = tested on: proximate viruses of the hepatitis C virus (viruses having (+)-chain single stranded RNA in their genome); settings: cited from earlier work

T1 sequence (Q9WMX2 2420-3010): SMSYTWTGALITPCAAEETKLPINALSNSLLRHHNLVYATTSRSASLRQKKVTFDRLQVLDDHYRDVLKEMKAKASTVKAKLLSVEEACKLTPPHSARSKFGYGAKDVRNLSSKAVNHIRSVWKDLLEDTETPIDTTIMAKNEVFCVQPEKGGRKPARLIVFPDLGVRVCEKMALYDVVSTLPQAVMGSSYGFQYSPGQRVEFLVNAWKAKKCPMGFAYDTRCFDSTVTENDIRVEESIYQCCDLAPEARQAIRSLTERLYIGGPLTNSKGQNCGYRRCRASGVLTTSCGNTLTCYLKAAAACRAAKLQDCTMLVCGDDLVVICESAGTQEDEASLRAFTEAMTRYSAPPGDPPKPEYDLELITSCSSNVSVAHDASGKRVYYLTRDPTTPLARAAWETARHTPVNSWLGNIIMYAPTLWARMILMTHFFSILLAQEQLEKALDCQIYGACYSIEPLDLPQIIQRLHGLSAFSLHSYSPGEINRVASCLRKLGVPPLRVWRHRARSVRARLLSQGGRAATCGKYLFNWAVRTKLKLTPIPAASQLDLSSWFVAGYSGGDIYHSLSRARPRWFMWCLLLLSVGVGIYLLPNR

In the case of interferon, the efficacy (hepatitis C) is listed as “not more than 30%”.

In the case of `O=c1[nH]c(=O)n([C@@H]2O[C@H](CO)[C@@H](F)[C@H]2O)cc1F` [Synthetic Example 2, 3′-deoxy-5,3′-difluorouridine], the “yield of total RNA for each of the samples (injury on the cells)” value (“yield of total RNA” for short) (MT-2C cells) is reported as “little or no alteration”.

In the case of `O=c1[nH]c(=O)n([C@H]2O[C@@H](COP(=O)(O)OP(=O)(O)OP(=O)(O)O)[C@H](F)[C@@H]2O)cc1F` [Synthetic Example 22, 1-(3′-deoxy-5,3′-fluoro-β-L-ribofuranosyl)uracil 5′-triphosphate], the IC50 (HCV RNA polymerase) is reported as 10 µM.

In the case of `O=c1ccn([C@H]2O[C@@H](CO)[C@H](F)[C@@H]2O)c(=O)[nH]1` [Synthetic Example 10, 1-(3′-deoxy-3′-fluoro-β-L-ribofuranosyl)uracil], the “detection of HCV genome in diluted RT product” value (“detection of HCV genome” below) (Hepatitis C Virus (HCV); 1 μM added) is reported as “could not be detected, except for one sample diluted to 10-fold”, the “detection of HCV genome” value (Hepatitis C Virus (HCV); 10 μM added) is reported as “could not be detected, except for one sample diluted to 10-fold” and the “yield of total RNA” value (MT-2C cells) is reported as “little or no alteration”.

Work on `O=c1ccn([C@H]2O[C@@H](COP(=O)(O)OP(=O)(O)OP(=O)(O)O)[C@H](F)[C@@H]2O)c(=O)[nH]1` [Synthetic Example 21, 1-(3′-deoxy-3′-fluoro-β-L-ribofuranosyl)uracil 5′-triphosphate] yielded an IC50 (HCV RNA polymerase) of 3 µM.

For `O=c1ccn([C@@H]2O[C@H](CO)[C@@H](F)[C@H]2O)c(=O)[nH]1` [Synthetic Example 1, 3′-deoxy-3′-fluorouridine], the “detection limit dilution (fold) of an HCV genome” value (Hepatitis C Virus (HCV); 1.0 μM added, FIG. 1, negative control detected up to 30-fold or 100-fold dilution) is given as “up to 3-fold or 10-fold”, the “yield of total RNA” value (MT-2C cells) is given as “little or no alteration” and the “inhibitory activity on proximate viruses of the hepatitis C virus” value [1] is given as “only a low inhibitory activity”.

`O=c1ccn([C@@H]2O[C@H](COP(=O)(O)OP(=O)(O)OP(=O)(O)O)[C@@H](F)[C@H]2O)c(=O)[nH]1` [Synthetic Example 12, 3′-deoxy-3′-fluorouridine 5′-triphosphate] showed an IC50 (HCV RNA polymerase) of 0.3 µM.

Work on `O=c1[nH]c(=O)n([C@@H]2O[C@H](COP(=O)(O)OP(=O)(O)OP(=O)(O)O)[C@@H](F)[C@H]2O)cc1F` [Synthetic Example 13, 3′-deoxy-5,3′-difluorouridine 5′-triphosphate] yielded an IC50 (HCV RNA polymerase) of 1 µM.

For `O=c1[nH]c(=O)n([C@H]2O[C@@H](CO)[C@H](F)[C@@H]2O)cc1F` [Synthetic Example 11, 1-(3′-deoxy-5,3′-difluoro-β-L-ribofuranosyl)uracil], the “detection of HCV genome” value (Hepatitis C Virus (HCV); 1 μM added) was “could not be detected, except for one sample diluted to 10-fold”, the “detection of HCV genome” value (Hepatitis C Virus (HCV); 10 μM added) was “could not be detected, except for one sample diluted to 10-fold” and the “yield of total RNA” value (MT-2C cells) was “little or no alteration”.

In the case of `O=c1ccn([C@@H]2O[C@H](COP(=O)(O)OP(=O)(O)OP(=O)(O)O)[C@@H](F)[C@H]2O)c(=S)[nH]1` [Synthetic Example 19, 3′-deoxy-3′-fluoro-2-thiouridine 5′-triphosphate], the IC50 (HCV RNA polymerase) is reported as 3 µM.
